According to ChEMBL document CHEMBL1201862, “PubChem BioAssay data set” (2004):
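How tested: cells in 96-well plates exposed to compound for 48 hours at five concentrations. GI50 marks 50% less growth.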 Active and inactive are the calls of the source. Rule as the data show it: active = GI50 up to about 1.1 µM and inactive = higher.

What was measured:
Experiment in all cases: NCI-60 cell line screen, 48 h
[1] = tested on: SNB-19
[2] = tested on: COLO 205
[3] = tested on: NCI-H226
[4] = tested on: SF-295
[5] = tested on: UACC-257
[6] = tested on: NCI-H460
[7] = tested on: SK-MEL-28
[8] = tested on: OVCAR-3
[9] = tested on: CCRF-CEM
[10] = tested on: OVCAR-8
[11] = tested on: IGROV-1
[12] = tested on: SN12C
[13] = tested on: LXFL 529
[14] = tested on: SF-268
[15] = tested on: KM-20L2
[16] = tested on: RXF 393
[17] = tested on: SK-MEL-2
[18] = tested on: M14
[19] = tested on: DMS-273
[20] = tested on: CAKI-1
[21] = tested on: NCI-H522
[22] = tested on: XF498
[23] = tested on: SK-OV-3
[24] = tested on: Malme-3M
[25] = tested on: DLD-1
[26] = tested on: HT-29
[27] = tested on: HOP-18
[28] = tested on: KM12
[29] = tested on: U-251
[30] = tested on: M19-MEL
[31] = tested on: HCC 2998
[32] = tested on: DMS-114
[33] = tested on: UO-31
[34] = tested on: HCT-15
[35] = tested on: TK-10
[36] = tested on: HOP-62
[37] = tested on: OVCAR-4
[38] = tested on: HL-60
[39] = tested on: OVCAR-5
[40] = tested on: ACHN
[41] = tested on: SF-539
[42] = tested on: MOLT-4
[43] = tested on: LOX IMVI
[44] = tested on: UACC-62
[45] = tested on: SK-MEL-5
[46] = tested on: A549
[47] = tested on: RPMI-8226
[48] = tested on: SR
[49] = tested on: A498
[50] = tested on: 786-0
[51] = tested on: SNB-75
[52] = tested on: NCI-H23
[53] = tested on: HOP-92
[54] = tested on: K562
[55] = tested on: EKVX
[56] = tested on: HCT-116

CC(CC(=O)Nc1ccc(NC(=O)CC(C)/N=N\C(N)=O)cc1)/N=N\C(N)=O (stereo not given)
GI50 [1]: > 100 µM (inactive)
GI50 [2]: 34.8 µM (inactive)
GI50 [3]: > 100 µM (inactive)
GI50 [4]: > 100 µM (inactive)
GI50 [5]: > 100 µM (inactive)
GI50 [6]: 50.9 µM (inactive)
GI50 [7]: > 100 µM (inactive)
GI50 [8]: > 100 µM (inactive)
GI50 [9]: > 100 µM (inactive)
GI50 [10]: > 100 µM (inactive)
GI50 [11]: > 100 µM (inactive)
GI50 [12]: > 100 µM (inactive)
GI50 [13]: > 100 µM (inactive)
GI50 [14]: > 100 µM (inactive)
GI50 [15]: > 100 µM (inactive)
GI50 [16]: > 100 µM (inactive)
GI50 [17]: > 100 µM (inactive)
GI50 [18]: > 100 µM (inactive)
GI50 [19]: 41.6 µM (inactive)
GI50 [20]: > 100 µM (inactive)
GI50 [21]: > 100 µM (inactive)
GI50 [22]: > 100 µM (inactive)
GI50 [23]: > 100 µM (inactive)
GI50 [24]: > 100 µM (inactive)
GI50 [25]: 34.5 µM (inactive)
GI50 [26]: > 100 µM (inactive)
GI50 [27]: > 100 µM (inactive)
GI50 [28]: > 100 µM (inactive)
GI50 [29]: > 100 µM (inactive)
GI50 [30]: > 100 µM (inactive)
GI50 [31]: > 100 µM (inactive)
GI50 [32]: 15.6 µM (inactive)
GI50 [33]: > 100 µM (inactive)
GI50 [34]: 16.4 µM
GI50 [35]: > 100 µM (inactive)
GI50 [36]: > 100 µM (inactive)
GI50 [37]: > 100 µM (inactive)
GI50 [38]: > 100 µM (inactive)
GI50 [39]: > 100 µM (inactive)
GI50 [40]: > 100 µM (inactive)
GI50 [41]: > 100 µM (inactive)
GI50 [42]: > 100 µM (inactive)
GI50 [43]: 24.7 µM (inactive)
GI50 [44]: > 100 µM (inactive)
GI50 [45]: > 100 µM (inactive)
GI50 [46]: > 100 µM (inactive)
GI50 [47]: > 100 µM (inactive)
GI50 [48]: 22.8 µM (inactive)
GI50 [49]: > 100 µM (inactive)
GI50 [50]: > 100 µM (inactive)
GI50 [51]: > 100 µM (inactive)
GI50 [52]: > 100 µM (inactive)
GI50 [53]: > 100 µM (inactive)
GI50 [54]: > 100 µM (inactive)
GI50 [55]: > 100 µM (inactive)
GI50 [56]: > 100 µM (inactive)

NC1C[C@H](n2cc(/C=C/Br)c(=O)[nH]c2=O)C[C@@H]1CO (stereo not given in full)
GI50 [1]: > 100 µM (inactive)
GI50 [2]: > 100 µM (inactive)
GI50 [3]: > 100 µM (inactive)
GI50 [4]: > 100 µM (inactive)
GI50 [5]: > 100 µM (inactive)
GI50 [6]: > 100 µM (inactive)
GI50 [7]: > 100 µM (inactive)
GI50 [8]: > 100 µM (inactive)
GI50 [9]: > 100 µM (inactive)
GI50 [10]: > 100 µM (inactive)
GI50 [12]: > 100 µM (inactive)
GI50 [13]: 50.4 µM (inactive)
GI50 [14]: > 100 µM (inactive)
GI50 [15]: > 100 µM (inactive)
GI50 [16]: > 100 µM (inactive)
GI50 [18]: > 100 µM (inactive)
GI50 [19]: > 100 µM (inactive)
GI50 [21]: > 100 µM (inactive)
GI50 [23]: > 100 µM (inactive)
GI50 [25]: > 100 µM (inactive)
GI50 [26]: > 100 µM (inactive)
GI50 [27]: > 100 µM (inactive)
GI50 [29]: > 100 µM (inactive)
GI50 [30]: > 100 µM (inactive)
GI50 [31]: > 100 µM (inactive)
GI50 [32]: > 100 µM (inactive)
GI50 [33]: > 100 µM (inactive)
GI50 [34]: > 100 µM
GI50 [35]: > 100 µM (inactive)
GI50 [36]: > 100 µM (inactive)
GI50 [37]: > 100 µM (inactive)
GI50 [38]: > 100 µM (inactive)
GI50 [40]: > 100 µM (inactive)
GI50 [41]: > 100 µM (inactive)
GI50 [42]: > 100 µM (inactive)
GI50 [43]: > 100 µM (inactive)
GI50 [44]: > 100 µM (inactive)
GI50 [47]: > 100 µM (inactive)
GI50 [49]: > 100 µM (inactive)
GI50 [50]: > 100 µM (inactive)
GI50 [51]: > 100 µM (inactive)
GI50 [52]: > 100 µM (inactive)
GI50 [54]: > 100 µM (inactive)
GI50 [55]: > 100 µM (inactive)
